According to article PMC11181322, “Copper(II) Complexes with Isomeric Morpholine-Substituted 2-Formylpyridine Thiosemicarbazone Hybrids as Potential Anticancer Drugs Inhibiting Both Ribonucleotide Reductase and Tubulin Polymerization: The Morpholine Position Matters” (Journal of Medicinal Chemistry, 2024):

Columns and labels:
MES-SA/Dx5 cells = experiment: Fluorescent protein-based cytotoxicity assay, MES-SA/Dx5; format: cell-based, human; conditions: for IC50: 120 h, ± SD, n = 3; for SR, selectivity ratio IC50 (MES-SA)/IC50 (MES-SA/Dx5): in the absence of TQ
Outline: (§1)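 Fluorescent-protein-expressing lines (MES-SA mCherry, MES-SA/Dx5 eGFP; resistance maintained with 500 nM doxorubicin a week before use) seeded at 2500 cells/well; next day serial compound dilutions added with or without 0.4 μM tariquidar. IC50 from mean pIC50.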

[1] = Cyclic voltammetry of copper(II) complexes in DMSO/n-Bu4NPF6; format: physicochemical; conditions: for Epa^1: first anodic peak potential vs Fc+/Fc; for Epa^1 / Epa^2: 100 mV s^–1; for Epa^2: second anodic peak potential vs Fc+/Fc; for E1/2^red: vs Fc+/Fc, scan rate 100 mV s^–1
Description: The redox properties of the copper(II) complexes 3–6 were investigated by electrochemical, EPR, and UV–vis spectroelectrochemical measurements. […] While the half-wave reduction potentials E1/2^red for complexes 3–5 were almost the same (−0.82 V vs Fc^+/Fc), the E1/2^red for 6 is by 0.07 V more positive (−0.75 V vs Fc^+/Fc), as summarized in Table 4. The corresponding proligands are not redox active in the cathodic part (not shown).
Cyclic voltammetric experiments with 0.5 mM solutions of copper(II) complexes 3–6 in 0.1 M nBu4NPF6 (puriss quality from Fluka; dried under reduced pressure at 70 °C for 24 h before use) as supporting electrolyte in DMSO (SeccoSolv max. 0.025% H2O, Merck) were performed under Ar using a three-electrode arrangement with Pt wire as the counter electrode and Ag wire as the pseudoreference electrode. Glassy carbon or Pt wire served as the working electrode. Ferrocene purchased from Sigma-Aldrich was used as the internal potential standard without further purification. All potentials in voltammetric studies were quoted vs ferricenium/ferrocene (Fc^+/Fc) as the redox couple. A Heka PG310USB (Lambrecht, Germany) potentiostat with a PotMaster 2.73 software package served for the potential control in voltammetric studies. In situ ultraviolet–visible-near-infrared (UV–vis–NIR) spectroelectrochemical measurements were performed on a spectrometer (Avantes, Model AvaSpec-2048 × 14-USB2 in the spectroelectrochemical cell kit ([…]3) with the Pt-microstructured honeycomb working electrode, purchased from Pine Research Instrumentation. The cell was positioned in the CUV-UV Cuvette Holder (Ocean Optics) connected to the diode array UV–vis-NIR spectrometer by optical fibers. UV–vis-NIR spectra were processed using the AvaSoft 7.7 software package. Halogen and deuterium lamps were used as light sources (Avantes, Model AvaLight-DH-S-BAL).

MES-SA cells = experiment: Fluorescent protein-based cytotoxicity assay, MES-SA; format: cell-based, human; conditions: 120 h; ± SD; n = 3
Outline: as §1

[2] = Redox reaction of the copper(II) complexes with GSH (UV–vis, anoxic); format: physicochemical; conditions: pH 7.4 (50 mM HEPES); ccomplex = 25 μM; cGSH = 1.25 mM; pure water; 25 °C
Description: The direct reduction of the copper(II) complexes with the antioxidant GSH was investigated in anoxic aqueous solution at pH 7.4 by UV–vis spectrophotometry. At this pH, the complex [Cu(HL)]^+ is assumed to predominate according to the speciation studies (vide supra). The spectral changes were monitored in the wavelength range 250–550 nm by using a large excess of GSH (50 equiv). In this wavelength range, the spectral changes are due to the absorption of the metal complex and the ligand.
These changes imply that, after reduction in the presence of excess GSH, the generated copper(I) complex is not stable and liberates the free TSC ligand. […] The time-dependent absorbance changes are shown for all the studied systems in Figure 4b. The observed rate constants (kobs) were calculated (Table 2) as a semiquantitative description of the reaction kinetics. […] The obtained kobs values fall into the range for Triapine (0.10 min^–1), 2-pyridinecarboxaldehyde TSC (0.041 min^–1), and N-monomethylated N-methyl-Triapine (0.077 min^–1), measured under similar conditions.[67] To find out whether this slightly different kinetics for 6 and 3–5 is in accordance with their reduction potentials, cyclic voltammetry was performed.
The redox reaction of the copper(II) complexes with GSH and ascorbic acid was studied at 25.0 ± 0.1 °C on a Hewlett-Packard 8452A diode array spectrophotometer using a special, tightly closed tandem cuvette (Hellma Tandem Cell, 238-QS). The reactants were separated until the reaction was triggered. Both isolated pockets of the cuvette were completely deoxygenated by bubbling a stream of Ar for 10 min before mixing the reactants. Spectra were recorded before and then immediately after the mixing, and changes were followed until no further absorbance change was observed. One of the isolated pockets contained the reducing agent, and the other contained the complex. Their final concentrations were 1250 and 25 μM, respectively. The pH of all the solutions was adjusted to 7.40 by 50 mM HEPES buffer. The ionic strength of the solution was 0.1 M (KCl). The stock solutions of the reducing agents and the complexes were freshly prepared every day. During the calculations, the absorbance (A) – time (t) curves were fitted and analyzed at the λmax of the complex. (A0 – Afinal) × e^(−a×t) + Afinal was the fitting equation used, where the A0, Afinal, and a parameters were refined and accepted at the minimal value of the weighted sum of squared residuals (difference between the measured and calculated absorbance values) at the given wavelength. Then, observed rate constants (kobs) of the redox reaction were obtained from the data points of the simulated absorbance–time curves as the slope of the ln(A/A0) vs time plots.

purified tubulin = experiment: Inhibition of polymerization of purified tubulin; format: biochemical; conditions: read-out: inhibition of tubulin IC50 ± SD

| SMILES | IC50 (MES-SA/Dx5 cells) [µM] | SR, selectivity ratio IC50 (MES-SA)/IC50 (MES-SA/Dx5) (MES-SA/Dx5 cells) | Epa^1 [1] | Epa^2 [1] | E1/2^red [1] | IC50 (MES-SA cells) [µM] | kobs, redox reaction with GSH [2] [min^–1] | IC50 (purified tubulin) [µM] |
| --- | --- | --- | --- | --- | --- | --- | --- | --- |
| Cc1cc(NC(=NN=Cc2cc(CN3CCOCC3)ccn2)[S][Cu][Cl])cc(C)c1O [complex 4, [Cu(HL^4)Cl]·1.5H2O] | 5.8 ± 0.1 | 3.33 | +0.31 V | +0.77 V | –0.82 V | 19.2 ± 1.7 | 0.079 ± 0.019 | 15 ± 1 |
| Cc1cc(NC(=NN=Cc2ccc(CN3CCOCC3)cn2)[S][Cu][Cl])cc(C)c1O [complex 5, [Cu(HL^5)Cl]·2.5H2O] | 8.1 ± 2 | 3.81 | +0.29 V | +0.69 V | –0.82 V | 31 ± 6.2 | 0.058 ± 0.010 | 15 ± 0.4 |
| Cc1cc(NC(=NN=Cc2cccc(CN3CCOCC3)n2)[S][Cu][Cl])cc(C)c1O [complex 6, [Cu(HL^6)Cl]·H2O] | 1.4 ± 0.2 | 0.21 | +0.26 V | +0.66 V |  | 0.29 | 0.165 ± 0.011 | 5 ± 0.3 |
